In publication PMC5740070 (Scientific Reports, 2017):
Read-outs that look alike come from different tables or passages of the source.

How the values were obtained:
MAK = molecular target: T1, MAK (Homo sapiens, UniProt P20794); assay: Reaction Biology radiometric filter binding kinase assay (10-point IC50 converted to Ki); assay type: biochemical; conditions: ATP near Km; Ki calculated from 10-point IC50
T1 construct: purchased Reaction Biology Corp (contract assay)
T1 sequence (P20794 1-623): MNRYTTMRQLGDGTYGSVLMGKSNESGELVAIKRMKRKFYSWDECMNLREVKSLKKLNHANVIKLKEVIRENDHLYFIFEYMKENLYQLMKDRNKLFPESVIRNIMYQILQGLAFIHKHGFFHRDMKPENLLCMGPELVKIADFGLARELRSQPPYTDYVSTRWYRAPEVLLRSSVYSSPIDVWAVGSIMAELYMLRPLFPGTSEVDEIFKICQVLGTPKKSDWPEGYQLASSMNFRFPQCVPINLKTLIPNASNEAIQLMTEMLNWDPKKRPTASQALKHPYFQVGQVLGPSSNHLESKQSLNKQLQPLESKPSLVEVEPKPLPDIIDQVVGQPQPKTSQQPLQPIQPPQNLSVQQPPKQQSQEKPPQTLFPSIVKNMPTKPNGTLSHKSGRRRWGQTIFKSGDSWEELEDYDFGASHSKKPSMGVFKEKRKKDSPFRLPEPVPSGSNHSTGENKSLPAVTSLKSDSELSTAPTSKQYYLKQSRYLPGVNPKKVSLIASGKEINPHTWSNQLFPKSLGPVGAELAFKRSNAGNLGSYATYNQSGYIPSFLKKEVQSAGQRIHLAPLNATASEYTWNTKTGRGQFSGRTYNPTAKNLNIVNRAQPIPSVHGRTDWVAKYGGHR
Description: (§1) Ki values for each target were calculated and compared for the two drugs (Fig. 1b–d).
(§2) The ATP concentration was near the Km values for the respective kinases. For each kinase, an IC50 value was calculated from a 10-point concentration curve of the test article and converted to Ki values.

ICK = molecular target: T2, ICK (Homo sapiens, UniProt Q9UPZ9); assay: as above; assay type: biochemical; conditions: ATP near Km; Ki calculated from 10-point IC50
T2 construct: purchased Reaction Biology Corp (contract assay)
T2 sequence (Q9UPZ9 1-632): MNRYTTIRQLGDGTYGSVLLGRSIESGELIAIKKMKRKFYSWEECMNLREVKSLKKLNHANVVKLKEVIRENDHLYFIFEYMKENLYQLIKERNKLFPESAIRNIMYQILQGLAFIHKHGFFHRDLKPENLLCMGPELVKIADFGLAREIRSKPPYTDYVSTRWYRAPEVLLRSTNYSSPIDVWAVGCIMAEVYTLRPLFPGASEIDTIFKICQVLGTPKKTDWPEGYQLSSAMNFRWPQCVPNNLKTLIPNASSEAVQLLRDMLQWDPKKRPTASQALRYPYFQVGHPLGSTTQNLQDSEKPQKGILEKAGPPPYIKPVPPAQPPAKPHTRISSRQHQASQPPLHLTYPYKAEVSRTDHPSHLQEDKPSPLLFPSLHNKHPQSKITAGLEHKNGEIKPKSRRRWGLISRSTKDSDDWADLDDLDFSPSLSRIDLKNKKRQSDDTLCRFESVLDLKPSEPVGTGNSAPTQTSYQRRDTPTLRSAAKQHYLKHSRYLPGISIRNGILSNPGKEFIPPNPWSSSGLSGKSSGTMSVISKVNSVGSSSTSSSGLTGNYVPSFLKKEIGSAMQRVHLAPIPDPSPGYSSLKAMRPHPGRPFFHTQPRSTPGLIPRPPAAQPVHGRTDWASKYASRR
Description: as §1, §2

[1] = cited from earlier work
[2] = Tolerability and body weight in systemic efficacy studies
Description: For systemic drug efficacy studies, mice were enrolled when tumors reached an average volume of 150–200 mm^3. Assignment to treatment groups was carried out via stratified randomization. Tumor dimensions were measured twice a week using digital calipers along with recording of body weight. Tumor volume was calculated using formula V = π/6 (length x width x height) in mm^3 [46]. Animals were removed from the study when either any one of the three measured dimensions of the tumor exceeded 2 cm, volume exceeded 2000 mm^3, ulceration was observed or if body weight loss greater than 20% was recorded. […] Control cohorts were administered vehicles of both drugs, and each single agent cohort was administered the vehicle of the other drug.

[3] = test system: relapsed or refractory non-Hodgkin lymphoma (NHL); set-up: method as in PMID 28095146; conditions: relapsed or refractory NHL patients, venetoclax alone; cited from earlier work
BCL-xL in OCI-LY10 cells = assay: Western blot for BCL-xL in ABC cell lines; assay type: cell-based; conditions: voruciclib 5 µM, venetoclax 50 nM or combination, 24 hours
From the text: Error bars represent SEM.
ECL chemiluminescent substrate (Pierce) and autoradiographic film (ThermoFisher) were used for detection of signals. MCL-1 and BCL-xL signals were quantified using Image Studio Lite (LICOR Biosciences) using β actin for normalization. Student’s t-test was used to compare mean signal intensities across different conditions. The level of significance was set at 0.05.

[4] = test system: BCL-xL in OCI-LY10 xenograft; assay: Western blot for BCL-xL in tumor lysates after oral dosing; assay type: in vivo, mice; conditions: 100 mpk or 200 mpk oral gavage for 5 days, compared to vehicle
From the text: Each lane represents an individual tumor (Tumor (T) #1–9). BCL-xl signals, normalized to β actin, were quantified and the average BCL-xl signal for each condition relative to vehicle is shown in the corresponding bar graph. Error bars represent SEM. Asterisks (*) denote p value < 0.05 calculated using the Student’s t-test for comparison of vehicle vs treatment.
20 micrograms of protein lysate from each condition were subjected to SDS-PAGE and transferred to 0.45 micron PVDF membranes (ThermoFisher) using manufacturer’s protocol, blocked for one hour in 5% milk at room temperature, probed with primary antibodies for cPARP (rabbit CST 5625), MCL-1 (rabbit CST 39224) or BCL-xL (rabbit CST 2764), followed by corresponding HRP-conjugated secondary antibodies (Jackson ImmunoResearch). β actin (mouse CST 12262) was used as loading control. ECL chemiluminescent substrate (Pierce) and autoradiographic film (ThermoFisher) were used for detection of signals. MCL-1 and BCL-xL signals were quantified using Image Studio Lite (LICOR Biosciences) using β actin for normalization. Student’s t-test was used to compare mean signal intensities across different conditions. The level of significance was set at 0.05.

[5] = Modelled plasma drug levels from Phase 1 pharmacokinetic data; conditions: humans, 250 mg/day oral, modelled from Phase 1 PK data
Description: (Fig. 2a). Predicted mean plasma levels, once steady state is achieved after about 5 oral doses, fluctuate between 2 and 3.5 μM with an average near 3 μM for our model parameters. […] This was accompanied by apoptosis as represented by cleaved PARP induction starting at 1-2 μM in all models (Figs 2c, S2 and S5). Complete MCL-1 repression was typically observed at 3 μM exposures. […] Maximum, average and minimum plasma levels are shown by the red, green and blue lines respectively. The parameter set derived from the PK data after 13/15 days dosing was used for the 15-day simulation for the steady state levels attained after repeat dosing. (b) Western blot analyses for RNA POL II ([…]), MCL-1, cPARP using protein lysates isolated from SU-DHL-4 cells. β actin was used as the loading control. […] Tumors were resected 4 hours after the final dose and processed for both Western blot and IHC analyses. β actin was used as loading control for the Western blot where each lane represents an individual tumor (Tumor (T) #1-9). MCL-1 signals, normalized to β actin, were quantified and the average MCL-1 signal for each condition relative to vehicle is shown in the corresponding bar graph. Error bars represent standard error of the mean (SEM). […] DAPI was used as counterstain for IHC. Representative images are shown. Scale bar: 1000 μm.

[6] = set-up: method as in earlier work; conditions: 350 mg/day, one patient out of 24; cited from earlier work
CDK1/cyc A = molecular target: T3, CDK1/cyc A (Homo sapiens, UniProt P06493); assay: Reaction Biology radiometric filter binding kinase assay (10-point IC50 converted to Ki); assay type: biochemical; conditions: ATP near Km; Ki calculated from 10-point IC50
T3 construct: purchased Reaction Biology Corp (contract assay)
Description: as §1, §2

CDK1/cyc B = molecular target: T4, CDK1/cyc B (Homo sapiens, UniProt P06493); assay: as above; assay type: biochemical; conditions: ATP near Km; Ki calculated from 10-point IC50
T4 construct: purchased Reaction Biology Corp (contract assay)
Description: as §1, §2

CDK6/cyc D1 = molecular target: T5, CDK6/cyc D1 (Homo sapiens, UniProt Q00534); assay: as above; assay type: biochemical; conditions: ATP near Km; Ki calculated from 10-point IC50
T5 construct: purchased Reaction Biology Corp (contract assay)
Description: as §1, §2

CDK4/cyc D1 = molecular target: T6, CDK4/cyc D1 (Homo sapiens, UniProt P11802); assay: as above; assay type: biochemical; conditions: ATP near Km; Ki calculated from 10-point IC50
T6 construct: purchased Reaction Biology Corp (contract assay)
Description: as §1, §2

[7] = test system: MCL-1 in OCI-LY10 xenograft; assay: Western blot and IHC for MCL-1 in tumors after oral dosing; assay type: in vivo, mice; conditions: 100 mpk or 200 mpk oral daily for 5 days, tumors resected 4 hours after final dose
Description: Maximum, average and minimum plasma levels are shown by the red, green and blue lines respectively. The parameter set derived from the PK data after 13/15 days dosing was used for the 15-day simulation for the steady state levels attained after repeat dosing. (b) Western blot analyses for RNA POL II (pSer2), MCL-1, cPARP using protein lysates isolated from SU-DHL-4 cells. β actin was used as the loading control. […] Tumors were resected 4 hours after the final dose and processed for both Western blot and IHC analyses. β actin was used as loading control for the Western blot where each lane represents an individual tumor (Tumor (T) #1-9). MCL-1 signals, normalized to β actin, were quantified and the average MCL-1 signal for each condition relative to vehicle is shown in the corresponding bar graph. Error bars represent standard error of the mean (SEM). Asterisks (*) denote p value < 0.05 calculated using the Student’s t-test for comparison of vehicle vs treatment. DAPI was used as counterstain for IHC. Representative images are shown. Scale bar: 1000 µm. […]

RNA POL II (pSer2) = assay: Western blot for RNA POL II (pSer2) in SU-DHL-4 cells; assay type: cell-based
[8] = test system: MCL-1 and cPARP in U2932, RIVA, OCI-LY10, NU-DHL-1, SU-DHL-4 and SU-DHL-6 cells; assay: Western blot for MCL-1 and cPARP in DLBCL cell lines; assay type: cell-based; conditions: 0.5 µM–5 µM for 6 hours
Description: Maximum, average and minimum plasma levels are shown by the red, green and blue lines respectively. The parameter set derived from the PK data after 13/15 days dosing was used for the 15-day simulation for the steady state levels attained after repeat dosing. (b) Western blot analyses for RNA POL II (pSer2), MCL-1, cPARP using protein lysates isolated from SU-DHL-4 cells. β actin was used as the loading control. […] Tumors were resected 4 hours after the final dose and processed for both Western blot and IHC analyses. β actin was used as loading control for the Western blot where each lane represents an individual tumor (Tumor (T) #1-9). MCL-1 signals, normalized to β actin, were quantified and the average MCL-1 signal for each condition relative to vehicle is shown in the corresponding bar graph. Error bars represent standard error of the mean (SEM). Asterisks (*) denote p value < 0.05 calculated using the Student’s t-test for comparison of vehicle vs treatment. DAPI was used as counterstain for IHC. Representative images are shown. Scale bar: 1000 µm.
RI-1, also known as RIVA, U2932, NU-DHL-1 cell lines were purchased from DSMZ. SU-DHL-4, SU-DHL-6 were purchased from ATCC. All lines were cultured in RPMI 1640 with L-Glutamine (ThermoFisher),10% fetal bovine serum (Thermofisher), at 37 degrees Celsius, 5% CO2. […]

T6 sequence (P11802 whole entry): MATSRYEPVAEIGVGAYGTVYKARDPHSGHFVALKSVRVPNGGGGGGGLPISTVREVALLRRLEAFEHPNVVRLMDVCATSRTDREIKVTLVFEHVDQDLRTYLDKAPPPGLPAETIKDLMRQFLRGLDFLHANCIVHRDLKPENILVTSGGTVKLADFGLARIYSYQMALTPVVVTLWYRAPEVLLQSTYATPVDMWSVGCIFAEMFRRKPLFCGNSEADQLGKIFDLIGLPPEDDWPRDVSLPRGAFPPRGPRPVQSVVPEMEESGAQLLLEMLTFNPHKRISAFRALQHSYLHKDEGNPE
T6 sequence (P24385 whole entry partner): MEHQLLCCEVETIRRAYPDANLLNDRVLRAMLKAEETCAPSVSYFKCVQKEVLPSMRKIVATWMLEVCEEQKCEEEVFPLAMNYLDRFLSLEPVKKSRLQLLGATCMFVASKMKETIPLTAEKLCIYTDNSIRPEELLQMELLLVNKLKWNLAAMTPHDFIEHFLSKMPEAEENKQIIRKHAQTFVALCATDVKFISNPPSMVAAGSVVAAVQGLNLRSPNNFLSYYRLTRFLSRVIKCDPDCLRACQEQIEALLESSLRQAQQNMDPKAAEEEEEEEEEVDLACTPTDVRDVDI
T4 sequence (P06493 whole entry): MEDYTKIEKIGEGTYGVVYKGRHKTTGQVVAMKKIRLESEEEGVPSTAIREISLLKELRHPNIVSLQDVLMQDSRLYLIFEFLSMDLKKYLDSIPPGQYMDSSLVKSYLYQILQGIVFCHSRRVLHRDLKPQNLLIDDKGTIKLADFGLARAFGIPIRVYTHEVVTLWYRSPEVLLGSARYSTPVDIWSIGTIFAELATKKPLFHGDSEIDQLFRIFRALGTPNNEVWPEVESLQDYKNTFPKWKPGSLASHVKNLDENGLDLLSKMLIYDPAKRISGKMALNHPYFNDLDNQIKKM
T4 sequence (P14635 whole entry partner): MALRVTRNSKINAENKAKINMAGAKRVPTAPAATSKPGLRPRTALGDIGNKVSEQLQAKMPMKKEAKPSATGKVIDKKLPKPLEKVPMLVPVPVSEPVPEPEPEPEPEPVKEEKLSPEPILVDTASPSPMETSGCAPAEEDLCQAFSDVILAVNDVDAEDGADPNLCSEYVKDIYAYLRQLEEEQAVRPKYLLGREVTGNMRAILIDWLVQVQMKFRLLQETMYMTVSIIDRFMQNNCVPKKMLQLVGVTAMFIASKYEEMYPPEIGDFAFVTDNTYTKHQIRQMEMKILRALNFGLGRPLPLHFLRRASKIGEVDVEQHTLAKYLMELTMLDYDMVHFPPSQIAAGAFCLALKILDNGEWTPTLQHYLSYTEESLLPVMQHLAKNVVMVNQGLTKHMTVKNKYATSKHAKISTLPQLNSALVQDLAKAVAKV
T3 sequence (P06493 whole entry): as the sequence (P06493 whole entry) above
T3 sequence (P20248 whole entry partner): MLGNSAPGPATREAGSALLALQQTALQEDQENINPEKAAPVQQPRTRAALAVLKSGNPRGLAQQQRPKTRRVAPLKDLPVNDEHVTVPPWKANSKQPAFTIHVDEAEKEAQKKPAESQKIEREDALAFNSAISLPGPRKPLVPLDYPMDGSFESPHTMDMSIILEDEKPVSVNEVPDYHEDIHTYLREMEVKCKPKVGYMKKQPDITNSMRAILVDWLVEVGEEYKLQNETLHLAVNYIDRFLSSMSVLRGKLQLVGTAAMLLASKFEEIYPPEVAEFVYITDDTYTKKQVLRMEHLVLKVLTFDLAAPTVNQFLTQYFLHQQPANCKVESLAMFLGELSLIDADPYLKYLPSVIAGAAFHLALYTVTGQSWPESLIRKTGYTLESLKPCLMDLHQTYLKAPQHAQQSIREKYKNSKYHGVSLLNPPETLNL
T5 sequence (Q00534 whole entry): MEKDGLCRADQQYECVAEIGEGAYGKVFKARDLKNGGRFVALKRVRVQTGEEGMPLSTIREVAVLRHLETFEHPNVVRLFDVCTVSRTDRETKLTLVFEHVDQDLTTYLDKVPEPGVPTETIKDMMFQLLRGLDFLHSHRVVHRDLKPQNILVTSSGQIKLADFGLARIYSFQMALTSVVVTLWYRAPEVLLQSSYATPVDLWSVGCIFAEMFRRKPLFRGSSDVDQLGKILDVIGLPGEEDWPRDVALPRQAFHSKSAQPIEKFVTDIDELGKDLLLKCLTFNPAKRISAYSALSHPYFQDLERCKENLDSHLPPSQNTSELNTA
T5 sequence (P24385 whole entry partner): as the sequence (P24385 whole entry partner) above

Structure (SMILES): CN1CC[C@H](c2c(O)cc(O)c3c(=O)cc(-c4ccccc4Cl)oc23)[C@H](O)C1 [Flavopiridol, reference compound]
- Ki (MAK): 1.08 nM
- Ki (ICK): 11.8 nM
- oral bioavailability [1]: neither of these two agents are orally bioavailable

Structure (SMILES): CC1(C)CCC(CN2CCN(c3ccc(C(=O)NS(=O)(=O)c4ccc(NCC5CCOCC5)c([N+](=O)[O-])c4)c(Oc4cnc5[nH]ccc5c4)c3)CC2)=C(c2ccc(Cl)cc2)C1 [Venetoclax, reference compound]
- tolerability, toxicity and body weight changes ([2]; xenografted mice (U2932, RIVA, OCI-LY10, NU-DHL-1, SU-DHL-4), oral regimens, first two cycles of treatment): not induce any significant body weight changes
- median progression-free survival [3]: 1 month
- overall response rate [3]: 18%
- BCL-xL levels in cell lysates (BCL-xL in OCI-LY10 cells): elevated levels of BCL-xL

Structure (SMILES): CN1CC[C@@H](c2c(O)cc(O)c3c(=O)cc(-c4ccc(C(F)(F)F)cc4Cl)oc23)[C@@H]1CO [Voruciclib]
- BCL-xL levels in tumor lysates [4]: elevated levels of BCL-xL
- tolerability, toxicity and body weight changes ([2]; mouse, in vivo, po): not induce any significant body weight changes
- Predicted mean plasma levels at steady state (average) [5]: ~3 µM
- patients with dose-limiting diarrhea [6]: 4%
- Ki (CDK1/cyc A): 9.1 nM
- Ki (CDK1/cyc B): 5.4 nM
- Ki (MAK): 259 nM
- Ki (CDK6/cyc D1): 2.92 nM
- Ki (CDK4/cyc D1): 3.96 nM
- Ki (ICK): 481 nM
- BCL-xL levels in cell lysates (BCL-xL in OCI-LY10 cells): elevated levels of BCL-xL
- oral bioavailability ([1]; has been shown, reference not given): orally bioavailable
- MCL-1 protein expression in tumors [7]: decreased in a dose-dependent manner
- phosphorylation of RNA POL II (RNA POL II (pSer2)): inhibition of phosphorylation of RNA POL II
- exposure giving complete MCL-1 repression ([8]; 6 DLBCL models): ~3 µM
- concentration at which cleaved PARP induction (apoptosis) starts ([8]; all 6 DLBCL models): 1 to 2 µM

Structure (SMILES): CCc1cnn2c(NCc3ccc[n+]([O-])c3)cc(N3CCCC[C@H]3CCO)nc12 [dinaciclib]
- oral bioavailability [1]: neither of these two agents are orally bioavailable
